Test systems include SNB-75; SW-620; RPMI-8226; Hs-578T; UACC-257; OVCAR-4; HT-29; LOX IMVI; NCI-H460; MDA-MB-231; A498; HOP-62; OVCAR-5; HCT-116; SK-MEL-28; SF-295; 786-0; SN12C; COLO 205; UO-31.
Test in all cases: NCI tumour cell line growth inhibition, 48 h

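All cell lines were grown in 96-well plates and treated with compound for 48 hours. Abbreviation: GI50, concentration required for 50% inhibition of growth.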 Active and inactive are the calls of the source. No stated cut-off is given here; in the data, active = GI50 up to about 1.1 µM and inactive = higher. A value given as a limit tells only on which side of the number the result lay.

`C=CC(C)(C)/C(=C\CO[Si](C(C)C)(C(C)C)C(C)C)C(=O)N(C)c1ccccc1I`: the GI50 in the assay on SNB-75 was 16.3 µM (inactive); in the assay on SW-620, 12.6 µM (inactive); in the assay with RPMI-8226 it was 2.96 µM (inactive); in the assay with Hs-578T it was 11.8 µM (inactive); in the assay with UACC-257 it was 13.3 µM (inactive); in the assay on OVCAR-4, 23 µM (inactive). Besides, the GI50 is 13.4 µM (inactive) in the assay with HT-29; 14.3 µM (inactive) in the assay with LOX IMVI; 13.6 µM (inactive) in the assay with NCI-H460; 13.3 µM (inactive) with MDA-MB-231; 20.3 µM (inactive) in the assay with A498; 16.3 µM (inactive) in the assay on HOP-62. For the same molecule, the GI50 in the assay on OVCAR-5 was 13.9 µM (inactive); in the assay with HCT-116, 3.13 µM (inactive); with SK-MEL-28, 14.2 µM (inactive); with SF-295, 13 µM (inactive); in the assay with 786-0 it was 14.5 µM (inactive); with SN12C, 16.2 µM (inactive). The GI50 was 16.4 µM (inactive) in the assay on COLO 205 and 12.8 µM (inactive) in the assay on UO-31.

For `CC(C)c1ccc(C(c2c(O)oc3ccccc3c2=O)c2c(O)oc3ccccc3c2=O)cc1`, the GI50 in the assay on SNB-75 is 25.9 µM (inactive); with SW-620, 17.1 µM (inactive); in the assay with RPMI-8226 it was 17.7 µM (inactive); with Hs-578T, 25.6 µM (inactive); in the assay with UACC-257, 21.3 µM (inactive); in the assay with OVCAR-4, 28.4 µM (inactive). For the same molecule, the GI50 with HT-29 is 20.8 µM (inactive); in the assay on LOX IMVI, 17.7 µM (inactive); with NCI-H460, 18.7 µM (inactive); in the assay on MDA-MB-231 it was 21.4 µM (inactive); in the assay with A498, 17.7 µM (inactive); with HOP-62 it was 21.4 µM (inactive). Further, the GI50 in the assay with OVCAR-5 is 17.6 µM (inactive); in the assay with HCT-116 it was 17 µM (inactive); in the assay with SK-MEL-28, 18.9 µM (inactive); in the assay with SF-295 it was 20 µM (inactive); with 786-0, 21.1 µM (inactive); with SN12C, 19.4 µM (inactive). In addition, the figures for the GI50 with COLO 205 and with UO-31 were 18.7 µM (inactive) and 13.8 µM (inactive), respectively.

In the case of `Cc1cn(CCCC2=NCCCN2)c(=O)[nH]c1=O`, the GI50 with SNB-75 is > 100 µM (inactive); in the assay with SW-620, > 100 µM (inactive); with RPMI-8226, 79.1 µM (inactive); in the assay with Hs-578T, > 100 µM (inactive); in the assay on UACC-257, > 100 µM (inactive); in the assay on OVCAR-4, > 100 µM (inactive). Moreover, the GI50 in the assay on HT-29, with LOX IMVI, in the assay on NCI-H460, in the assay on MDA-MB-231, in the assay with A498 and in the assay with HOP-62 was > 100 µM (inactive) throughout. Further, the GI50 in the assay on OVCAR-5, in the assay with HCT-116, in the assay with SK-MEL-28, in the assay on SF-295, in the assay on 786-0 and in the assay on SN12C was > 100 µM (inactive) each time. For the same molecule, the GI50 with COLO 205 and in the assay on UO-31 was > 100 µM (inactive) each time.

With `CC1OC(=O)c2ccccc2NC1=O` (stereo not given), the GI50 in the assay with SNB-75, in the assay on SW-620, with RPMI-8226, in the assay on Hs-578T, in the assay on UACC-257 and in the assay with OVCAR-4 was > 100 µM (inactive) throughout. The GI50 in the assay on HT-29, with LOX IMVI, in the assay on NCI-H460, in the assay on MDA-MB-231, in the assay on A498 and in the assay on HOP-62 was > 100 µM (inactive) each time. Besides, the GI50 with OVCAR-5, with HCT-116, with SK-MEL-28, in the assay on SF-295, in the assay with 786-0 and in the assay on SN12C was > 100 µM (inactive) throughout. Also, the GI50 in the assay on COLO 205 and with UO-31 was > 100 µM (inactive) in each case.

`CCc1cccc(C(C)C)c1NC(=O)C(=O)C1C(=O)Nc2ccccc2[S+]1[O-]` (stereo not given): the GI50 in the assay with SNB-75, in the assay with SW-620, with RPMI-8226, in the assay on Hs-578T, with UACC-257 and with OVCAR-4 was > 100 µM (inactive) in each case. Moreover, the GI50 in the assay on HT-29, in the assay on LOX IMVI, with NCI-H460, in the assay on MDA-MB-231, in the assay on A498 and in the assay on HOP-62 was > 100 µM (inactive) throughout. Besides, the GI50 in the assay with OVCAR-5, in the assay on HCT-116, in the assay with SK-MEL-28, in the assay with SF-295, in the assay on 786-0 and in the assay with SN12C was > 100 µM (inactive) throughout. Also, the GI50 with COLO 205 and in the assay on UO-31 was > 100 µM (inactive) throughout.

As for `Cc1ccc2c(c1)C=CC1(O2)N(c2ccccc2)C(=S)OC1(C)C` (stereo not given), the GI50 in the assay on SNB-75 is > 100 µM (inactive); with SW-620 it was 75.5 µM (inactive); in the assay with RPMI-8226, 22.9 µM (inactive); with Hs-578T, 31.9 µM (inactive); in the assay with UACC-257 it was 45.1 µM (inactive); with OVCAR-4, 25.8 µM (inactive). For the same molecule, the GI50 was 41.5 µM (inactive) in the assay with HT-29; > 100 µM (inactive) in the assay on LOX IMVI; > 100 µM (inactive) with NCI-H460; > 100 µM (inactive) in the assay with MDA-MB-231; > 100 µM (inactive) in the assay on A498; > 100 µM (inactive) in the assay with HOP-62. The GI50 in the assay with OVCAR-5 is 33.7 µM (inactive); in the assay on HCT-116, 21.5 µM (inactive); in the assay on SK-MEL-28, > 100 µM (inactive); in the assay on SF-295, 48.2 µM (inactive); with 786-0, > 100 µM (inactive); in the assay on SN12C, > 100 µM (inactive). Also, the values for the GI50 in the assay on COLO 205 and with UO-31 were > 100 µM (inactive) and 28.5 µM (inactive), respectively.

With `CCc1cccc(CC)c1NC(=O)C(C#N)C1=C(Cl)C(=O)c2ccccc2C1=O` (stereo not given), the GI50 with SNB-75 is 5.18 µM (inactive); in the assay with SW-620, 9.33 µM (inactive); in the assay on RPMI-8226 it was 4.56 µM (inactive); in the assay with Hs-578T it was < 0.01 µM (active); with UACC-257 it was 17.4 µM (inactive); with OVCAR-4, 16.6 µM (inactive). For the same molecule, the GI50 in the assay on HT-29 was 19.9 µM (inactive); in the assay on LOX IMVI, 12.7 µM (inactive); in the assay with NCI-H460 it was 22.6 µM (inactive); in the assay with MDA-MB-231, 5.55 µM (inactive); with A498, 19 µM (inactive); with HOP-62, 14.5 µM (inactive). Moreover, the GI50 with OVCAR-5 is 18.8 µM (inactive); with HCT-116, 15.9 µM (inactive); in the assay with SK-MEL-28, 20.6 µM (inactive); in the assay with SF-295, 15.7 µM (inactive); with 786-0 it was 16.4 µM (inactive); with SN12C, 16.7 µM (inactive). The GI50 with COLO 205 was 20.3 µM (inactive); with UO-31 it was 11.8 µM (inactive).

As for `C=CCc1cc(C(Cc2ccccc2)NC(C)C)cc(OCc2ccccc2)c1OCc1ccccc1` (stereo not given), the GI50 is 13.2 µM (inactive) in the assay with SNB-75; 18.2 µM (inactive) in the assay with SW-620; 12.9 µM (inactive) in the assay with RPMI-8226; 18 µM (inactive) in the assay with Hs-578T; 18.8 µM (inactive) in the assay on UACC-257; 17.4 µM (inactive) in the assay with OVCAR-4. For the same molecule, the GI50 in the assay with HT-29 is 15.1 µM (inactive); with LOX IMVI, 14.8 µM (inactive); in the assay on NCI-H460, 15 µM (inactive); in the assay with MDA-MB-231, 15 µM (inactive); in the assay with A498 it was 15.3 µM (inactive); in the assay on HOP-62 it was 15.9 µM (inactive). For the same molecule, the GI50 in the assay with OVCAR-5 was 19.1 µM (inactive); in the assay with HCT-116 it was 16.4 µM (inactive); in the assay with SK-MEL-28, 16.4 µM (inactive); in the assay on SF-295 it was 17.8 µM (inactive); in the assay on 786-0, 16.6 µM (inactive); in the assay with SN12C, 15.6 µM (inactive). The GI50 is 17.3 µM (inactive) in the assay with COLO 205 and 10.1 µM (inactive) in the assay on UO-31.

As for `O=C[C@@H](CO)O[C@H](C=O)c1c[nH]c(=O)[nH]c1=O`, the GI50 in the assay on SNB-75 is 182 µM (inactive); in the assay on SW-620 it was 62.8 µM (inactive); with RPMI-8226, 53.8 µM (inactive); in the assay with Hs-578T, 100 µM (inactive); in the assay with UACC-257, 104 µM (inactive); in the assay on OVCAR-4 it was 83.9 µM (inactive). Further, the GI50 in the assay with HT-29 was 107 µM (inactive); in the assay with LOX IMVI, 93.8 µM (inactive); in the assay with NCI-H460 it was 105 µM (inactive); in the assay with MDA-MB-231, 74.1 µM (inactive); with A498, 119 µM (inactive); in the assay with HOP-62, 59 µM (inactive). The GI50 was 131 µM (inactive) with OVCAR-5; 84.5 µM (inactive) in the assay on HCT-116; 85.7 µM (inactive) in the assay on SK-MEL-28; 146 µM (inactive) in the assay on SF-295; 128 µM (inactive) in the assay with 786-0; 83 µM (inactive) in the assay with SN12C. For the same molecule, the GI50 in the assay with COLO 205 is 77.1 µM (inactive); in the assay with UO-31, 88.5 µM (inactive).
